Patent publication US20260327240A1, “1,4-CINEOLE DERIVATIVE AND INTERMEDIATE THEREOF, HERBICIDE CONTAINING SAID DERIVATIVE AS ACTIVE INGREDIENT, METHOD FOR USING HERBICIDE, AND METHOD FOR PREPARING AGROCHEMICAL COMPOSITION” (HOKKO CHEMICAL INDUSTRY CO., LTD., priority 2023, published 2026)

How the values were obtained:
Format in all cases: in vivo
[1] = system: Echinochloa crus-galli var. formosensis; assay: Comparative Example: herbicidal effect test by application during growth period of paddy rice (three-leaf stage); conditions: 504 h, 7.5 g per 10 ares, 21 days after application, triplicate, read-out: Weed inhibition rate (%)
Protocol: As an example, the herbicidal effect on Echinochloa crus-galli var. formosensis at the three-leaf stage was confirmed by the following method, and the results are specifically shown in Table 7 as a comparative example.
(§1) Herbicidal Effect Test by Application During Growth Period of Paddy Rice
Wagner pots with an area of […] were filled with paddy soil, followed by addition of water and incorporation of chemical fertilizer (N:P:K=16:16:16), after which puddling was performed. After that, 30 seeds of Echinochloa crus-galli var. formosensis were sown at a depth of 0 cm to 1 cm. Immediately after sowing, the pots were flooded and a water depth of approximately 3 cm was maintained. Subsequent management was conducted in a glass greenhouse. When Echinochloa crus-galli var. formosensis reached the three-leaf stage, an emulsifiable concentrate prepared according to Formulation Example 5 using the compound shown below was diluted with water, and a specified amount of the diluted solution was applied by dropper. The amount of the active ingredient to be applied was equivalent to 7.5 g per 10 ares. The test was conducted in triplicate for each chemical concentration group, and the weed inhibition rate (%) was determined 21 days after chemical application using the following formula (Math. 1).

Digitaria ciliaris [2] = assay: Test Example 3: herbicidal effect test by soil application in upland field; conditions: 1 day after sowing, 120 g per 10 ares, 14 days after application
Protocol: (§2) Herbicidal Effect Test by Soil Application in Upland Field
(§3) Pots with an area of 36 cm^2 were filled with upland soil (alluvial loam), twenty seeds each of weeds of Digitaria ciliaris, Echinochloa crus-galli, Chenopodium album, and Amaranthus viridis were uniformly mixed with the top 1 cm layer of soil and the surface was lightly pressed down. One day after sowing, an emulsifiable concentrate prepared according to Formulation Example 5 using the compound shown below was diluted with water, and the diluted solution was sprayed onto the soil surface at a rate of 100 liters per 10 ares. The amount of the active ingredient to be applied was equivalent to 120 g per 10 ares. Fourteen days after chemical application, the herbicidal effect was evaluated according to the same criteria as in Test Example 1.

Echinochloa crus-galli [3] = assay: as above; conditions: 1 day after sowing, 120 g per 10 ares, 14 days after application
Protocol: as §2, §3

Chenopodium album = assay: as above; conditions: 1 day after sowing, 120 g per 10 ares, 14 days after application
Protocol: as §2, §3

Amaranthus viridis [4] = assay: as above; conditions: 1 day after sowing, 120 g per 10 ares, 14 days after application
Protocol: as §2, §3

[5] = system: Echinochloa crus-galli var. formosensis; assay: Test Example 2: herbicidal effect test by application during growth period of paddy rice; conditions: 7 days after sowing, 120 g per 10 ares, 14 days after application
Protocol: as §1
(§4) Wagner pots with an area of 1/10,000 […] were filled with paddy soil, followed by addition of water and incorporation of chemical fertilizer (N:P:K=16:16:16), after which puddling was performed. After that, seeds of Echinochloa crus-galli var. formosensis, broad-leaved weeds (Lindemia pyxidaria, and Monochoria vaginalis), and Scirpus juncoides were sown at a depth of 0 cm to 1 cm, 30 seeds each. Immediately after sowing, the pots were flooded and a water depth of approximately 3 cm was maintained. Subsequent management was conducted in a glass greenhouse. Seven days after sowing, an emulsifiable concentrate prepared according to Formulation Example 5 using the compound shown below was diluted with water, and a specified amount of the diluted solution was applied by dropper. The amount of the active ingredient to be applied was equivalent to 120 g per 10 ares. The test was conducted in duplicate for each chemical concentration group, and the herbicidal effect was evaluated 14 days after chemical application using the same criteria as in Test Example 1.

Echinochloa crus-galli [6] = assay: Test Example 8: herbicidal effect test by stem and leaf treatment in upland field; conditions: 7 days after sowing, 7.5 g per 10 ares, 14 days after application
Protocol: (§5) Herbicidal Effect Test by Stem and Leaf Treatment in Upland Field
as §3, with “Seven days” for “One day”, “7.5” for “120”

Digitaria ciliaris [7] = assay: Test Example 4: herbicidal effect test by stem and leaf treatment in upland field; conditions: 7 days after sowing, 120 g per 10 ares, 14 days after application
Protocol: as §5
as §3, with “Seven days” for “One day”

Echinochloa crus-galli [8] = assay: as above; conditions: 7 days after sowing, 120 g per 10 ares, 14 days after application
Protocol: as §5
as §3, with “Seven days” for “One day”

Scirpus juncoides [9] = assay: Test Example 1: herbicidal effect test by soil application in paddy rice; conditions: 120 g per 10 ares, 14 days after application
Protocol: (§6) Herbicidal Effect Test by Soil Application in Paddy Rice
as §4, with “(Lindernia pyxidaria” for “(Lindemia pyxidaria,”, “Immediately thereafter,” for “Seven days after sowing,”, “ares.” for “ares. The test was conducted in duplicate for each chemical concentration group, and the herbicidal effect was evaluated 14 days after chemical application using the same criteria as in Test Example 1.”
(§7) The present test was conducted in duplicate for each chemical concentration group, and the weed inhibition rate (%) was determined 14 days after chemical application using the following formula (Math. 1).

[10] = system: Echinochloa crus-galli var. formosensis; assay: as above; conditions: 120 g per 10 ares, 14 days after application
Protocol: as §6
as §4, with “(Lindernia pyxidaria” for “(Lindemia pyxidaria,”, “Immediately thereafter,” for “Seven days after sowing,”, “ares.” for “ares. The test was conducted in duplicate for each chemical concentration group, and the herbicidal effect was evaluated 14 days after chemical application using the same criteria as in Test Example 1.”
as §7

Echinochloa crus-galli [11] = assay: Test Example 7: herbicidal effect test by soil application in upland field; conditions: 1 day after sowing, 7.5 g per 10 ares, 14 days after application
Protocol: as §2
as §3, with “7.5” for “120”

Amaranthus viridis [12] = assay: as above; conditions: 1 day after sowing, 7.5 g per 10 ares, 14 days after application
Protocol: as §2
as §3, with “7.5” for “120”

Scirpus juncoides [13] = assay: Test Example 5: herbicidal effect test by soil application in paddy rice; conditions: 7.5 g per 10 ares, 14 days after application
Protocol: as §6
as §4, with “Immediately thereafter,” for “Seven days after sowing,”, “7.5” for “120”, “ares.” for “ares. The test was conducted in duplicate for each chemical concentration group, and the herbicidal effect was evaluated 14 days after chemical application using the same criteria as in Test Example 1.”
(§8) The present test was conducted in duplicate for each chemical concentration group, and the herbicidal effect was evaluated 14 days after chemical application using the same criteria as in Test Example 1.

[14] = system: Echinochloa crus-galli var. formosensis; assay: as above; conditions: 7.5 g per 10 ares, 14 days after application
Protocol: as §6
as §4, with “Immediately thereafter,” for “Seven days after sowing,”, “7.5” for “120”, “ares.” for “ares. The test was conducted in duplicate for each chemical concentration group, and the herbicidal effect was evaluated 14 days after chemical application using the same criteria as in Test Example 1.”
as §8

Row | SMILES | inhibition at 75 g/ha [1] | weed inhibition rate (Digitaria ciliaris [2]) | weed inhibition rate (Echinochloa crus-galli [3]) | weed inhibition rate (Chenopodium album) | weed inhibition rate (Amaranthus viridis [4]) | weed inhibition rate [5] | weed inhibition rate (Echinochloa crus-galli [6]) | weed inhibition rate (Digitaria ciliaris [7]) | weed inhibition rate (Echinochloa crus-galli [8]) | weed inhibition rate (Scirpus juncoides [9]) | weed inhibition rate [10] | weed inhibition rate (Echinochloa crus-galli [11]) | weed inhibition rate (Amaranthus viridis [12]) | weed inhibition rate (Scirpus juncoides [13]) | weed inhibition rate [14]
1 | C=C1C(OCc2ccccc2C)C2(C)CCC1(C(C)C)O2 (stereo not drawn) | 20% | – | – | – | – | – | – | – | – | – | – | – | – | – | –
2 | CC(C)[C@]12C[C@@H](OCc3ccccc3C(F)(F)F)[C@](C)(CC1=O)O2 [2-29, (1R,4S5R)-1-isopropyl-4-methyl-5-((2-(trifluoromethyl)benzyl)oxy)-7-oxabicyclo[2.2.1]heptan-2-one] | – | ≥ 80% | ≥ 80% | ≥ 80% | ≥ 80% | ≥ 80% | ≥ 80% | ≥ 80% | ≥ 80% | ≥ 80% | ≥ 80% | ≥ 80% | ≥ 80% | ≥ 80% | ≥ 80%
